Article PMC7180948, “New Insights into 4-Anilinoquinazolines as Inhibitors of Cardiac Troponin I–Interacting Kinase (TNNi3K)” (Molecules, 2020)

Experiments:
Experiment in all cases: biochemical
Set-up in all cases: KINOMEscan competition binding panel (Eurofins DiscoverX), single concentration, % inhibition
PFPK5(P.falciparum) = target: T1, PFPK5(P.falciparum) (Plasmodium falciparum, UniProt P61075); settings: read-out: 7 at 1 µM % inhibition (pathogen kinases)
T1 construct: gene CRK2
How it was run: (§1)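 Values come from single-concentration (1 µM) profiling in the Eurofins DiscoverX KINOMEscan competition-binding platform, which covers over 400 kinases.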

MST4 = target: T2, MST4 (Homo sapiens, UniProt Q9P289); settings: read-out: 7 at 1 µM % inhibition
T2 construct: gene STK26
How it was run: as §1

MST1 = target: T3, MST1 (Homo sapiens, UniProt Q13043); settings: read-out: 7 at 1 µM % inhibition
T3 construct: gene STK4
How it was run: as §1

ACVRL1 = ACVRL1 (Homo sapiens, UniProt P37023); settings: read-out: 7 at 1 µM % inhibition
How it was run: as §1

PRKCH = PRKCH (Homo sapiens, UniProt P24723); settings: read-out: 7 at 1 µM % inhibition
How it was run: as §1

FLT1 = FLT1 (Homo sapiens, UniProt P17948); settings: read-out: 7 at 1 µM % inhibition
How it was run: as §1

p38-beta = target: T4, p38-beta (Homo sapiens, UniProt Q15759); settings: read-out: 7 at 1 µM % inhibition
T4 construct: gene MAPK11
How it was run: as §1

WNK4 = WNK4 (Homo sapiens, UniProt Q96J92); settings: read-out: 7 at 1 µM % inhibition
How it was run: as §1

MET(Y1235D) = MET(Y1235D) (Homo sapiens, UniProt P08581, Y1235D); settings: read-out: 7 at 1 µM % inhibition
How it was run: as §1

WNK3 = WNK3 (Homo sapiens, UniProt Q9BYP7); settings: read-out: 7 at 1 µM % inhibition
How it was run: as §1

FRK = FRK (Homo sapiens, UniProt P42685); settings: read-out: 7 at 1 µM % inhibition
How it was run: as §1

SGK = target: T5, SGK (Homo sapiens, UniProt O00141); settings: read-out: 7 at 1 µM % inhibition
T5 construct: gene SGK1
How it was run: as §1

MAP3K1 = MAP3K1 (Homo sapiens, UniProt Q13233); settings: read-out: 7 at 1 µM % inhibition
How it was run: as §1

MYLK = MYLK (Homo sapiens, UniProt Q15746); settings: read-out: 7 at 1 µM % inhibition
How it was run: as §1

PRKCI = PRKCI (Homo sapiens, UniProt P41743); settings: read-out: 7 at 1 µM % inhibition
How it was run: as §1

FLT3(N841I) = FLT3(N841I) (Homo sapiens, UniProt P36888, N841I); settings: read-out: 7 at 1 µM % inhibition
How it was run: as §1

DCAMKL2 = target: T6, DCAMKL2 (Homo sapiens, UniProt Q8N568); settings: read-out: 7 at 1 µM % inhibition
T6 construct: gene DCLK2
How it was run: as §1

ALK = ALK (Homo sapiens, UniProt Q9UM73); settings: read-out: 7 at 1 µM % inhibition
How it was run: as §1

CSNK2A2 = CSNK2A2 (Homo sapiens, UniProt P19784); settings: read-out: 7 at 1 µM % inhibition
How it was run: as §1

EGFR(L861Q) = EGFR(L861Q) (Homo sapiens, UniProt P00533, L861Q); settings: read-out: 7 at 1 µM % inhibition
How it was run: as §1

FLT3(K663Q) = FLT3(K663Q) (Homo sapiens, UniProt P36888, K663Q); settings: read-out: 7 at 1 µM % inhibition
How it was run: as §1

DDR2 = DDR2 (Homo sapiens, UniProt Q16832); settings: read-out: 7 at 1 µM % inhibition
How it was run: as §1

PRKR = target: T7, PRKR (Homo sapiens, UniProt P19525); settings: read-out: 7 at 1 µM % inhibition
T7 construct: gene EIF2AK2
How it was run: as §1

PRKCD = PRKCD (Homo sapiens, UniProt Q05655); settings: read-out: 7 at 1 µM % inhibition
How it was run: as §1

T1 sequence (P61075 whole entry): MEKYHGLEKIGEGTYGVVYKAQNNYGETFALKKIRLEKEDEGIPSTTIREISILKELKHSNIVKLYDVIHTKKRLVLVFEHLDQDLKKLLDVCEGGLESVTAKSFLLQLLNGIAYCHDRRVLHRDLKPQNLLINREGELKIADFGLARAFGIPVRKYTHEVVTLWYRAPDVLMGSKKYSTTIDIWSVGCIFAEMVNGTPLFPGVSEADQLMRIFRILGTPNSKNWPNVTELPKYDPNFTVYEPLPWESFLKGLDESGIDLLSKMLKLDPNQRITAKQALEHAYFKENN
Chain of MAP3K1 (Q13233 whole entry): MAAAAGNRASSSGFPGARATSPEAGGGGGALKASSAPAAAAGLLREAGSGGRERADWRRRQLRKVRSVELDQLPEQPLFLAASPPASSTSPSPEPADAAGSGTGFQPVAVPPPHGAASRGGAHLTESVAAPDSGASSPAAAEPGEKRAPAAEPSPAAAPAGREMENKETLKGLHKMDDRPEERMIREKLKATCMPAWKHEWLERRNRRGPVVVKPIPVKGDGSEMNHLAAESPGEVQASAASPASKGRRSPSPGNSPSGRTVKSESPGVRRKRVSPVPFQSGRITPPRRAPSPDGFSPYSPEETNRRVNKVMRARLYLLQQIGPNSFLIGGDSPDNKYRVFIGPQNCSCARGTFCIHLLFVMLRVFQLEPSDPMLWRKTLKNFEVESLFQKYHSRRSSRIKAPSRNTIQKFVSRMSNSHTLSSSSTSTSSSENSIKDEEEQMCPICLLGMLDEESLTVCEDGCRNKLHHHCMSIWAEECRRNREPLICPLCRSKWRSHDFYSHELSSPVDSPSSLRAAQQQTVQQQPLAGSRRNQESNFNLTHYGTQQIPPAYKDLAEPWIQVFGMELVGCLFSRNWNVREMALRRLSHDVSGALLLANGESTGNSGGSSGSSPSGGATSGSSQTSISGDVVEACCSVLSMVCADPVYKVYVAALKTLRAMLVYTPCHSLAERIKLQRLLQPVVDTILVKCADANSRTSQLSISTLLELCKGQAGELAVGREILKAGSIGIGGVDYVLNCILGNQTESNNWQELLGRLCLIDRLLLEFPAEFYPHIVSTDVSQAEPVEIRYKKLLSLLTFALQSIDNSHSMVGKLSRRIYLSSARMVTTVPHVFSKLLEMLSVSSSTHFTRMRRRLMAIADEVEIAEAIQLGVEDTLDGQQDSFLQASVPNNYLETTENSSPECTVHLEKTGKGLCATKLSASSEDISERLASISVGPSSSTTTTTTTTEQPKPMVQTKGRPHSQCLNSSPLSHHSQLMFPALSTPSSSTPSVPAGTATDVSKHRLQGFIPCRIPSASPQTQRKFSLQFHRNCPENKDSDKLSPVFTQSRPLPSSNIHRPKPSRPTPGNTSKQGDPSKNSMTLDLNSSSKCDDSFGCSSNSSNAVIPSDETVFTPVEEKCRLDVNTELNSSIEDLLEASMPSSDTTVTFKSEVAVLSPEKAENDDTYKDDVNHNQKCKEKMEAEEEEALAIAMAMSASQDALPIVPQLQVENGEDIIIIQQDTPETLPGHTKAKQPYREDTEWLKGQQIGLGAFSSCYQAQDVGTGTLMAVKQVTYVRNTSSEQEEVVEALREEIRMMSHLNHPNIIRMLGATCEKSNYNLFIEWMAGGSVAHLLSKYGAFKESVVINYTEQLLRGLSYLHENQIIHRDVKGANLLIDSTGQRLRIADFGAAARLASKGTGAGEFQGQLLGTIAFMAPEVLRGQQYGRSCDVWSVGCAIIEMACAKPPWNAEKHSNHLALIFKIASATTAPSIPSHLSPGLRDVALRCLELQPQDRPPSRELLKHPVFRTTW
T4 sequence (Q15759 whole entry): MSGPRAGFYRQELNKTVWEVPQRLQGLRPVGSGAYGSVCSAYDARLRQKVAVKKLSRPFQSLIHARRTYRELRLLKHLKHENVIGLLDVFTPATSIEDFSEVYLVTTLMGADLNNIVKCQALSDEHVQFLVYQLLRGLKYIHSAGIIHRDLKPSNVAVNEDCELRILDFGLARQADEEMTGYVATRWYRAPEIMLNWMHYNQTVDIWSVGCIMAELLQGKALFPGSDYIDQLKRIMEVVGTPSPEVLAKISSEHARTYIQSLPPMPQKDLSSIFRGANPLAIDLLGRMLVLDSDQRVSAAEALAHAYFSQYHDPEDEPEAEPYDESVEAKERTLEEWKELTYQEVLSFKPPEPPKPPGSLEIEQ
Chain of PRKCD (Q05655 whole entry): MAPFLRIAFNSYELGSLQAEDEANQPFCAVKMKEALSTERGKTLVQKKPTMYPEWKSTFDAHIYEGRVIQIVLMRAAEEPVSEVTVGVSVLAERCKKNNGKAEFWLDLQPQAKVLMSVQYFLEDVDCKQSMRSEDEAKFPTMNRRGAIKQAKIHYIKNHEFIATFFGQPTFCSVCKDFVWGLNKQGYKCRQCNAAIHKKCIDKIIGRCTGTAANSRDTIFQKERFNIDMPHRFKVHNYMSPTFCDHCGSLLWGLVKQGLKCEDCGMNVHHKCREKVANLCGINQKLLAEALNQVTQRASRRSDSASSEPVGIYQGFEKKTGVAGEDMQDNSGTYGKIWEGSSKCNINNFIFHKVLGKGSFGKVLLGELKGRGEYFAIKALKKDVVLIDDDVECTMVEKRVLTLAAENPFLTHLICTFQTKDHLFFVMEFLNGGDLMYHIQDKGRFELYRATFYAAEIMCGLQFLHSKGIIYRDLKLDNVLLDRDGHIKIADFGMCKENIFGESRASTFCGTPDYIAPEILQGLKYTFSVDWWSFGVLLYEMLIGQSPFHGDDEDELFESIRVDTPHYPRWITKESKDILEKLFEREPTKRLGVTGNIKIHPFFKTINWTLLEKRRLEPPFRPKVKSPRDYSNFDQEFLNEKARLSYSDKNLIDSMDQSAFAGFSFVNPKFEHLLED
Chain of ACVRL1 (P37023 whole entry): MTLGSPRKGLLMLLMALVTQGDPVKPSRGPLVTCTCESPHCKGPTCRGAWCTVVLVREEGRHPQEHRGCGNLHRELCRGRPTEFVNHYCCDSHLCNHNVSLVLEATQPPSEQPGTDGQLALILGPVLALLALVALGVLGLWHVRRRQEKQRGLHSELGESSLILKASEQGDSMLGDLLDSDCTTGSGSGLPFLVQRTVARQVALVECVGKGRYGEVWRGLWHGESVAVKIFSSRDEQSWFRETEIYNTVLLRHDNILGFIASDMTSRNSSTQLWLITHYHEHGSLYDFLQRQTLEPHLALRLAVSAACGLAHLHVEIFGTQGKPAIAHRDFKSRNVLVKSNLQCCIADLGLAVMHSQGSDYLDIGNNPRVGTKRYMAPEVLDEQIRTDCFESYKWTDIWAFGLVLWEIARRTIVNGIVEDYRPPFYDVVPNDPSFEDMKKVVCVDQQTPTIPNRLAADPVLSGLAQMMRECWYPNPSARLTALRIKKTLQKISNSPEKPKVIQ
T2 sequence (Q9P289 whole entry): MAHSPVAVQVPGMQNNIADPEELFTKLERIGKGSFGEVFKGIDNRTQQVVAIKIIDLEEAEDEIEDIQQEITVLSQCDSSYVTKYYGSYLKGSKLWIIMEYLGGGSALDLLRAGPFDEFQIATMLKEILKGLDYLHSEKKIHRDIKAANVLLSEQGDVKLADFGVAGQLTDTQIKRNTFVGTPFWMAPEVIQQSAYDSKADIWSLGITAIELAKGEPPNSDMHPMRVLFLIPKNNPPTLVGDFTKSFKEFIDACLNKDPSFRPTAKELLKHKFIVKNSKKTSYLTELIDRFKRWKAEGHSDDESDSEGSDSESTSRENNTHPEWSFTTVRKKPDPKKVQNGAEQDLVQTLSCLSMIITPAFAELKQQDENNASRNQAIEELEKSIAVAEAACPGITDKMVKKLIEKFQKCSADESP
Chain of DDR2 (Q16832 whole entry): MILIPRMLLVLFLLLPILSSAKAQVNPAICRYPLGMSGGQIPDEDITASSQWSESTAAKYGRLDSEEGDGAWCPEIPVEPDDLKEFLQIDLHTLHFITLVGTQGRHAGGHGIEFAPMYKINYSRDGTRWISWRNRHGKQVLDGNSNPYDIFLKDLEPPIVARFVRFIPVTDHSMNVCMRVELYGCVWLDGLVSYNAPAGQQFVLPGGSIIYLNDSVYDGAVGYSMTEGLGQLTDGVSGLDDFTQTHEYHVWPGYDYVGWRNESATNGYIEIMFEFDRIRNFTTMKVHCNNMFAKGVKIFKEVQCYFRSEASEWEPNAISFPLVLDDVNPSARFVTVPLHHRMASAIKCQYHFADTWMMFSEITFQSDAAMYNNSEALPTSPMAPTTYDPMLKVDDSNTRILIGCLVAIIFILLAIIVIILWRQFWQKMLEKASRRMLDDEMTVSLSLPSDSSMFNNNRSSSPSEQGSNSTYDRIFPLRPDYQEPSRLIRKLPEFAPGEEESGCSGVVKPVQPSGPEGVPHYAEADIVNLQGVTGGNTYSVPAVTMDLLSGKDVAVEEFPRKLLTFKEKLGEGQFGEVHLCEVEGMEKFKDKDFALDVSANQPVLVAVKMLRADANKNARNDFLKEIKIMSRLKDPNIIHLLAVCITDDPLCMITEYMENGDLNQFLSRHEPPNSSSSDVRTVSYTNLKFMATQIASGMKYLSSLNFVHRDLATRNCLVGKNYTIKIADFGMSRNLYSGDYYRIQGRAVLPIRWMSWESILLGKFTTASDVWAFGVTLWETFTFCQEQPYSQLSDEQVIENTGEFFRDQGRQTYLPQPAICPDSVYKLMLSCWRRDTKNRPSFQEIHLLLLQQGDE
T5 sequence (O00141 whole entry): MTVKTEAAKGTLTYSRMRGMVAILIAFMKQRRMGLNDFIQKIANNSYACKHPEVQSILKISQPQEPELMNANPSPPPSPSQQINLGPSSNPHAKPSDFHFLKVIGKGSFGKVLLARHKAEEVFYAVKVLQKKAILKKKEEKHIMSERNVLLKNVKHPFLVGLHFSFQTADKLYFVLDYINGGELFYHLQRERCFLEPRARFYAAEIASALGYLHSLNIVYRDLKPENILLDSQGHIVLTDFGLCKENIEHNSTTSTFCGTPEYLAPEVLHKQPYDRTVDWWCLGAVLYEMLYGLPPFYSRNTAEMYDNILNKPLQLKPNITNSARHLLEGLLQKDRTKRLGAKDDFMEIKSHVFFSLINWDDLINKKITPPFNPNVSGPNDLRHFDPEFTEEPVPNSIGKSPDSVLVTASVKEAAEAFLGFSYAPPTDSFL

CNS(=O)(=O)c1ccc(N(C)C)c(Nc2ncnc3cc(OC)c(OC)cc23)c1 [compound 7, 3-((6,7-dimethoxyquinazolin-4-yl)amino)-4-(dimethylamino)-N-methylbenzenesulfonamide]
inhibition at 1 µM (PFPK5(P.falciparum)): 6%
inhibition at 1 µM (MST4): 21%
inhibition at 1 µM (MST1): 21%
inhibition at 1 µM (ACVRL1): 0%
inhibition at 1 µM (PRKCH): 13%
inhibition at 1 µM (FLT1): 0%
inhibition at 1 µM (p38-beta): 0%
inhibition at 1 µM (WNK4): 0%
inhibition at 1 µM (MET(Y1235D)): 33%
inhibition at 1 µM (WNK3): 2%
inhibition at 1 µM (FRK): 0%
inhibition at 1 µM (SGK): 1%
inhibition at 1 µM (MAP3K1): 0%
inhibition at 1 µM (MYLK): 9%
inhibition at 1 µM (PRKCI): 5%
inhibition at 1 µM (FLT3(N841I)): 0%
inhibition at 1 µM (DCAMKL2): 0%
inhibition at 1 µM (ALK): 10%
inhibition at 1 µM (CSNK2A2): 13%
inhibition at 1 µM (EGFR(L861Q)): 0%
inhibition at 1 µM (FLT3(K663Q)): 7%
inhibition at 1 µM (DDR2): 41%
inhibition at 1 µM (PRKR): 0%
inhibition at 1 µM (PRKCD): 24%
